Source: PMC5841658, “Anti-cancer characteristics and ototoxicity of platinum(II) amine complexes with only one leaving ligand” (PLoS ONE, 2018)
Values joined by “and” are separate entries in the source; they are usually repeats but may differ in a detail not shown here. Equal entries are not always repeated.

Assays:
[1] = tested on: A549, Caco2, HTB16 and IMR90 cell lines; test: MTT cellular viability assay, comparison over all cell lines; assay type: cell-based; conditions: in our cell lines (Table 2)
Protocol: Cell lines were obtained from American Type Culture Collection (ATCC, Manassas, VA). The A549 (ATCC: CCL-185) lung cancer cell line was grown in F12K media with 10% FBS and 1% penicillin/streptomycin supplementation. Both the U-138 MG (ATCC: HTB-16) glioblastoma cancer cell line and IMR-90 (ATCC: CCL-186) lung fibroblast control cell line were grown in Eagle’s Minimum Essential Medium (EMEM) with supplementation as in A549. Caco-2 (ATCC: HTB-37) colorectal cancer was grown in EMEM with 20% FBS and 1% penicillin/streptomycin. All cell lines were incubated at 37°C in 5% CO2 with passaging every 4–7 days. […]
The MTT (3-(4,5-dimethylthiazol-2-yl)-2,5-diphenyltetrazolium bromide) cellular viability assay was performed in all three cancer cell lines and the non-cancer cell line. […] The MTT assay was run for 2 hours, then well contents were rapidly evacuated out and all wells were treated with MTT solubilization solution [10% Triton X-100 in acidic (0.1N HCl) isopropanol] for 15 minutes before the plates were read using a BioTek Synergy HT microplate plate reader (570 nm and 690 nm absorbance wavelengths). […]
GraphPad Prism v6 (La Jolla, CA) was used for all statistical analysis. Nuclear fraction platinum uptake as a total percent of combined nuclear and cytosolic uptake was analyzed using a one-way ANOVA (Brown-Forsyth test; p ≤ 0.05). […]

5'-GMP = test: Kinetic 5'-GMP assay (1H NMR, rate of reaction of platinum complex with 5'-GMP); assay type: biochemical; conditions: D2O, pH 7, 25°C; for Rate constant for the reaction of 5'-GMP with the platinum(II) complex: excess platinum, fitted first order in each reactant
Protocol: The reaction of each platinum compound with 5'-GMP (Acros) was monitored using ^1H NMR spectroscopy to observe the disappearance of the H8 signal of the unreacted 5'-GMP at ≈8 ppm and the appearance of a product signal ≈0.5–1.0 ppm downfield of the unreacted 5'-GMP. The reaction was conducted with excess platinum compound present in each case. A 10 mM solution of 5'-GMP and a 10–20 mM solution of the platinum(II) compound were prepared separately in D2O. The pH (uncorrected for the effects of deuterium) of each solution was adjusted to 7, and the samples were equilibrated to 25°C in a water bath. Aliquots of the two solutions were combined and placed in an NMR tube; typically, the final concentrations of platinum was 5–18 mM and the concentration of 5'-GMP was 1 mM (except for the [Pt(dien)Cl]^+ reaction, where it was 0.5 mM). Samples were maintained at 25°C throughout the NMR experiment. The H8 resonances were integrated and the data was fitted to an equation that was first order in each reactant using DynaFit to determine rate constants. At least two runs were conducted for each platinum compound using fresh samples.

[2] = tested on: zebrafish utricle hair cells; test: Hair cell quantification, utricle; assay type: in vivo, Danio rerio; conditions: extrastriolar (E1-E3) and striolar (S1-S3) regions, 25 mg/kg i.p., 48 hours
Source text: Zebrafish (Danio rerio) were purchased from a commercial supplier (Segrest Farms, Gibsonton, FL) and maintained in the animal facility of Western Kentucky University according to a protocol approved by the Institutional Animal Care and Use Committee. All zebrafish used in this study were a mix of male and female adult animals at least 6 months of age and were maintained according to standard methods.
Zebrafish were sedated with tricaine methanesulfonate (MS-222, Argent, Redmond, WA), weighed, and then intraperitoneally microinjected with 25 mg/kg body weight of platinum test compound or an equivalent volume of vehicle (0.9% NaCl) control using a 35 gauge syringe operated by a Micro4 microsyringe pump controller (World Precision Instruments, Sarasota, FL). After injection, fish were returned to holding tanks for either 24 or 48 hours and then subjected to hearing tests followed by hair cell quantification analysis. […]
GraphPad Prism v6 (La Jolla, CA) was used for all statistical analysis. Nuclear fraction platinum uptake as a total percent of combined nuclear and cytosolic uptake was analyzed using a one-way ANOVA (Brown-Forsyth test; p ≤ 0.05). IC50 values were calculated in Prism using the sigmoidal, 4PL, x is log(concentration) analysis feature or were calculated from Prism derived values using the equation y = mx + b. […]

[3] = tested on: A549 lung cancer cell line; test: MTT cellular viability assay, A549; assay type: cell-based; conditions: 72 hours, ± standard deviation
Protocol: Cell lines were obtained from American Type Culture Collection (ATCC, Manassas, VA). […] Caco-2 (ATCC: HTB-37) colorectal cancer was grown in EMEM with 20% FBS and 1% penicillin/streptomycin. All cell lines were incubated at 37°C in 5% CO2 with passaging every 4–7 days. Cell culture media and supplements were obtained from ATCC, Atlanta Biologicals (Flowery Branch, GA), Mediatech (Tewksbury, MA), Fisher Scientific (Waltham, MA), Gibco (Gaithersburg, MD) and Sigma-Aldrich.
The MTT (3-(4,5-dimethylthiazol-2-yl)-2,5-diphenyltetrazolium bromide) cellular viability assay was performed in all three cancer cell lines and the non-cancer cell line. Following a protocol adapted from, cells were seeded at 5,000 cells per well in 96-well plates and incubated at 37°C in 5% CO2 in F-12K Medium or EMEM with FBS supplementation and 1% penicillin/streptomycin for 24 hours. Then, wells were treated in replicates of six according to a concentration series (500, 50, 5, 0.5, 0.05 μM) of specific platinum complexes for 72 hours. A negative control (media only), positive control (Triton X-100) and series of blanks were simultaneously performed. The MTT assay was run for 2 hours, then well contents were rapidly evacuated out and all wells were treated with MTT solubilization solution [10% Triton X-100 in acidic (0.1N HCl) isopropanol] for 15 minutes before the plates were read using a BioTek Synergy HT microplate plate reader (570 nm and 690 nm absorbance wavelengths). Reagents, cell culture media and supplements were obtained from ATCC, Atlanta Biologicals, Mediatech, Fisher Scientific, Gibco and Sigma-Aldrich.
GraphPad Prism v6 (La Jolla, CA) was used for all statistical analysis. Nuclear fraction platinum uptake as a total percent of combined nuclear and cytosolic uptake was analyzed using a one-way ANOVA (Brown-Forsyth test; p ≤ 0.05). IC50 values were calculated in Prism using the sigmoidal, 4PL, x is log(concentration) analysis feature or were calculated from Prism derived values using the equation y = mx + b. MTT assay standard deviation values were calculated using ED50plus v1.0 online software. AEP threshold data were analyzed by two-way ANOVA (Dunnett’s multiple comparisons test; p ≤ 0.05) and hair cell quantification data by two-way ANOVA (Tukey’s multiple comparisons test; p ≤ 0.05). AEP temporary threshold shifts (TTS) were calculated by subtracting the mean vehicle threshold for each frequency from each treatment threshold. TTS data were averaged across frequencies for each treatment and were analyzed by one-way ANOVA (Tukey’s multiple comparisons test; p ≤ 0.05).

| Compound | factor by which cellular viability is reduced more than by pyriplatin [1] | Relative rate (rate constant divided by the rate constant for [Pt(dien)Cl]^+) (5'-GMP) | fold reduction in the rate relative to [Pt(dien)Cl]^+ (5'-GMP) | Rate constant for the reaction of 5'-GMP with the platinum(II) complex (5'-GMP) | Rate constant for the reaction of 5'-GMP with the platinum(II) complex (5'-GMP; listed as phenanthriplatin) | effect on utricle hair cell density compared to vehicle [2] | IC50 [3] [µM] |
| --- | --- | --- | --- | --- | --- | --- | --- |
| phenanthriplatin | at least 10 | 0.041 | ~ 25 fold | 1.63 (+/- .02) x 10^−2 M^-1s^-1 | 1.63 ± 0.02 x 10^-2 M^-1s^-1 |  |  |
| [Cl][Pt-2]12[NH2+]CC[NH+]1CC[NH2+]2 (stereo not drawn) [[Pt(dien)Cl]^+, Pt(diethylenetriamine)Cl] |  | 1 |  | 3.9 ± 0.1 x 10^−1 M^-1s^-1 and 3.9 (+/- 0.1) x 10^−1 M^-1s^-1 |  | one elevated mean hair cell density count at S2 | 198 ± 4.8 |
